Legend:
HMEC cells = experiment: Annexin V/PI staining in HMEC cells; assay type: cell-based; settings: 25 nM
Procedure: (§1) FIG. 11 illustrates an embodiment of the present invention and illustrates SIM-1 and SIM-2 induced apoptosis in MDA-MB-468 TNBC cells, but not HMEC control cells. MDA-MB-468 cells were treated with increasing doses of (A) SIM-1 and (B) SIM-2 for 48 hrs followed by lactate dehydrogenase (LDH) release assay in the supernatants. The result was offset with cell-bound LDH and presented as a percent of DMSO control as discussed under method section. Half-maximal cytotoxicity or CT50 analyses were performed plotting maximum response as an index of increasing doses of (C) SIM-1 and (D) SIM-2. AnnexinV (green) and propidium iodide (red) dual-labeling were performed to evaluate apoptotic response in MDA-MB-468 cells once treated with increasing doses of (E) SIM-1 and (F) SIM-2 for 24 hrs. Nuclei were stained with DAPI. TUNEL assay was performed in MDA-MB-468 cells after treatment with 25 nM of (G) SIM-1. Brown-colored TUNEL bodies were visualized at cresyl violet-stained blue nuclei. (H) The number of TUNEL bodies were counted as a percent of 100 cresyl violet-stained blue cells. Ten independent images were counted for the quantification study. Similarly, SIM-2 was assessed for (I) TUNEL and (J) subsequent quantification analyses. One-way ANOVA was performed to test the significance of mean between groups at **p<0.01 and ****p<0.0001. […]

MDA-MB-468 TNBC cells = experiment: LDH release cytotoxicity assay in MDA-MB-468 cells; assay type: cell-based, human; settings: 48 hrs; for EC50: Homo sapiens, MDA-MB-468, LDH release, read-out: CT50 (half-response of cytotoxicity)
Procedure: FIG. 11 illustrates an embodiment of the present invention and illustrates SIM-1 and SIM-2 induced apoptosis in MDA-MB-468 TNBC cells, but not HMEC control cells. MDA-MB-468 cells were treated with increasing doses of (A) SIM-1 and (B) SIM-2 for 48 hrs followed by lactate dehydrogenase (LDH) release assay in the supernatants. The result was offset with cell-bound LDH and presented as a percent of DMSO control as discussed under method section. Half-maximal cytotoxicity or CT50 analyses were performed plotting maximum response as an index of increasing doses of (C) SIM-1 and (D) SIM-2. AnnexinV (green) and propidium iodide (red) dual-labeling were performed to evaluate apoptotic response in MDA-MB-468 cells once treated with increasing doses of (E) SIM-1 and (F) SIM-2 for 24 hrs. Nuclei were stained with DAPI. TUNEL assay was performed in MDA-MB-468 cells after treatment with 25 nM of (G) SIM-1. Brown-colored TUNEL bodies were visualized at cresyl violet-stained blue nuclei. (H) The number of TUNEL bodies were counted as a percent of 100 cresyl violet-stained blue cells. Ten independent images were counted for the quantification study. Similarly, SIM-2 was assessed for (I) TUNEL and (J) subsequent quantification analyses. One-way ANOVA was performed to test the significance of mean between groups at **p<0.01 and ****p<0.0001. (K) LDH release assay was performed in non-tumor origin human mammary epithelial cells (HMEC) once treated with increasing doses of SIM-1 and SIM-2 for 48 hrs. Ns=no significance. (L) Annexin V (green) and propidium iodide (red) staining was performed in 25 nM SIM-1- and SIM-2-treated HMEC cells. Nuclei were stained with DAPI. Results are confirmed after three different experiments.
LDH Assay. LDH Assay was performed as per manufacturer's instructions (Cat #: 2570393; Vendor: Thermo Fisher Scientific). MDA-MB-468 and HMEC cells were treated with SIMPYRA-1 and SIMPYRA-2 at doses of 2 nM, 5 nM, […] 25 nM. Each dose was measured in triplicates. After 48 hours of incubation at 37° C., 50 μL of soup from each well was harvested and transferred into a new 96 well plate. Each well was treated with 50 μL of reaction mix (Substrate Mixture+deionized water+Assay Buffer). The reaction was stopped with 50 μL of Stop Solution. The plate was read at 490 nm (background at 680 nm).
(§2) This example provides a representative experiment that studies if SIM-1 and SIM-2 promoted the death of TNBC cells. The following experiments were adopted to confirm the apoptosis of TNBC cells. […] During apoptosis, phosphatidyl serine of the plasma membrane flips from the inner to the outer membrane which can be detected by Annexin V labeling, whereas PI stains the nucleus of a cell with compromised integrity of the plasma membrane. […]

MDA-MB-468 cells = experiment: TUNEL assay in MDA-MB-468 cells; assay type: cell-based, human; settings: 25 nM
Procedure: as §1, with “Nuclei were stained with DAPI. TUNEL assay was performed in MDA-MB-468 cells after treatment with 25 nM of (G) SIM-1. Brown-colored TUNEL bodies were visualized at cresyl violet-stained blue nuclei.” left out, “analyses.” for “analyses. One-way ANOVA was performed to test the significance of mean between groups at **p<0.01 and ****p<0.0001.”
as §2, with “death” for “death of TNBC cells. The following experiments were adopted to confirm the apoptosis”

Which results are given for `O=C(O)CCC(=O)NCc1csc2ccc(Cl)cc12` [SIM-1, 4-[(5-chloro-1-benzothiophen-3-yl)methylamino]-4-oxobutanoic acid]?
apoptosis in healthy normal cells (annexin V/PI) (HMEC cells): unable to induce apoptosis; concentration of maximum cell death (LDH release) (MDA-MB-468 TNBC cells): 20 nM; EC50 (MDA-MB-468 TNBC cells): 20.8 nM; TUNEL response (MDA-MB-468 cells): strongly induced

Which results are given for `CCOC(=O)c1c(NC(C)=O)sc2c(Cl)c(/C=N/O)ccc12` [SIM-2, ethyl 2-acetamido-7-chloro-6-(hydroxyiminomethyl)-1-benzothiophene-3-carboxylate]?
apoptosis in healthy normal cells (annexin V/PI) (HMEC cells): unable to induce apoptosis; concentration of maximum cell death (LDH release) (MDA-MB-468 TNBC cells): 20 nM; EC50 (MDA-MB-468 TNBC cells): 18.3 nM; TUNEL response (MDA-MB-468 cells): strongly induced

From patent US20250255847A1, “[…]s: Novel Drugs for Triple Negative Breast Cancer” (SIMMARON RSEARCH INC, priority 2024, published 2025)
